{"source": "patent US7361769B2", "about": "“Heterocyclyls as selective melanin concentrating hormone receptor antagonists for the treatment of obesity and related disorders” (Schering Corporation, priority 2004, dated 2008)", "key": {"MCH receptor": {"biological_target": "T1, MCH receptor (Homo sapiens, UniProt Q99705)", "T1 construct": "expressed in transfected cells; host or cells: CHO cells (membrane preparation)", "T1 sequence (Q99705 whole entry)": "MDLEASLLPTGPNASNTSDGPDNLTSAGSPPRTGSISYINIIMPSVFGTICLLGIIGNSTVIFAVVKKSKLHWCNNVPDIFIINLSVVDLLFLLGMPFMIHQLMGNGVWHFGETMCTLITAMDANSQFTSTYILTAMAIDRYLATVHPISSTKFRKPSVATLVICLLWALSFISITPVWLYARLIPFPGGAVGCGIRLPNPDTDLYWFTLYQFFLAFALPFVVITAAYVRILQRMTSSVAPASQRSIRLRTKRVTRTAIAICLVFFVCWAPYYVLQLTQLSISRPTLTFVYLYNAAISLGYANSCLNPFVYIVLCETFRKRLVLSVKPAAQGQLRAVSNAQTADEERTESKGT", "experiment": "MCH receptor binding assay ([125I]-MCH, SPA)", "conditions": "membranes from CHO cells expressing the MCH receptor", "procedure": "MCH Receptor Binding Assay:\nMembranes from CHO cells expressing the MCH receptor were prepared by lysing cells with 5 mM HEPES for 15 min at 4 C. Cell lysates were centrifuged ([…], 15 min) and the pellet was re-suspended in 5 mM HEPES. For each 96-well plate (Microlite, Dynex Technologies), 1 mg of cell membranes were incubated with 10 mg of wheat germ agglutinin SPA beads (Amersham) for 5 min at 4 C in a volume of 10 ml of binding buffer (25 mM HEPES, 10 mM MGCl2, 10 mM NaCl, 5 mM MnCl2, 0.1% BSA). The membrane/bead mixture was centrifuged (1500×g, 3.5 min), the supernatant was aspirated, and the pellet was resuspended in 10 ml binding buffer. The centrifugation, aspiration and resuspension were then repeated. The membrane/bead mixture (100 μl) was then added to 96-well plates containing 50 μl of 500 pM [^125I]-MCH (NEN) and […] of the appropriate concentration of compound (4× the desired final concentration). Nonspecific binding was determined by including 1 μM MCH in the binding reaction. The binding reaction was incubated at room temperature for 2 h. Plates were then analyzed in a TOPCOUNT microplate scintillation counter (Packard). Data was analyzed and Ki values were determined using GraphPad Prism."}, "hERG channels": {"biological_target": "T2, hERG channels (Homo sapiens, UniProt Q12809)", "T2 construct": "expressed in transfected cells", "T2 sequence (Q12809 whole entry)": "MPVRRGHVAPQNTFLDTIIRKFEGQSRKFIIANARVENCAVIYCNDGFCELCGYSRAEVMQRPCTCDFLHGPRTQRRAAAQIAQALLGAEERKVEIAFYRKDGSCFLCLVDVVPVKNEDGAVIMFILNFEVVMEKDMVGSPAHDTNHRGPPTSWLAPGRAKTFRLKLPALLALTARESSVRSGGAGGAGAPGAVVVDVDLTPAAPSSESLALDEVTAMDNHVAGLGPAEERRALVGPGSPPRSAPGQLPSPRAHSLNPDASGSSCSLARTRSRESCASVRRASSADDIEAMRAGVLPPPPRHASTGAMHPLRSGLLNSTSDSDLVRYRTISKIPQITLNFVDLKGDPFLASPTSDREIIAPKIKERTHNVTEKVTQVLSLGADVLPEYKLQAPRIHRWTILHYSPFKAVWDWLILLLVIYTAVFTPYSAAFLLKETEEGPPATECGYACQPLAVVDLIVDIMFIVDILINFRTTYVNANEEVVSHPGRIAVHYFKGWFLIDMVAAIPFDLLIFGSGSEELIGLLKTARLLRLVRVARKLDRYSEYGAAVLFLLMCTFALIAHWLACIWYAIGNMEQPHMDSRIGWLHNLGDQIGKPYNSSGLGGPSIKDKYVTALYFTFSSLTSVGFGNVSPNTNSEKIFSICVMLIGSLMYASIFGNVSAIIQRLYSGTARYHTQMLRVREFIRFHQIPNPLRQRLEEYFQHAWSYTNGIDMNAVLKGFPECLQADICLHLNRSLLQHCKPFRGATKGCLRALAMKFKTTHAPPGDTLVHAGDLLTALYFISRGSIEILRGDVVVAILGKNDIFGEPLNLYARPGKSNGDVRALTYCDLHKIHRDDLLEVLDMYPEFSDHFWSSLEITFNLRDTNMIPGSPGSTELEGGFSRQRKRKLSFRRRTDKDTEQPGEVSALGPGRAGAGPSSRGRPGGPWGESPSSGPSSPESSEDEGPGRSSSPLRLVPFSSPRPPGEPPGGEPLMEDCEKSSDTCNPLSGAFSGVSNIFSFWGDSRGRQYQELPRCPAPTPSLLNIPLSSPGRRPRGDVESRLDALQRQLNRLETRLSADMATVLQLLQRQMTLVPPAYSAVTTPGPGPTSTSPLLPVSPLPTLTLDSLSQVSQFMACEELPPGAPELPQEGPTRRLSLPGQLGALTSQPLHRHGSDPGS", "experiment": "Herg-Rb two phase screen (rubidium efflux)", "format": "cell-based", "conditions": "CHO cells expressing hERG, relative to complete block with 10 μM dofetilide; for herg-Rb 1.5 μg/mL (%): test article at 1.5 μg/ml; for herg-Rb 5 μg/mL (%): test article at 5 μg/ml", "procedure": "Herg-Rb data (μg/mL) (%) was determined by the following two phase screen. The first phase is a cell-handling phase in which cells are loaded with rubidium, drugs are added and efflux initiated by KCl-depolarization. The second phase is measurement of rubidium content in cell supernatants that are collected at the end of the cell-handling phase. CHO cells expressing hERG in a stable manner are used for these studies. Cells are plated into 96-well dishes one day prior to study. After overnight culture, the normal tissue culture medium is removed and cells are loaded with rubidium for 3 hours in a HEPES-buffered physiological saline solution containing 5 mM rubidium chloride in place of potassium chloride. During the final 30 minutes of rubidium loading cells are pre-equilibrated with test articles at 1.5 μg/ml and 5 μg/ml. Cells are then washed with rubidium-free HEPES buffered physiological saline solution containing 5 mM KCl to remove all extracellular rubidium. The final step of the cell handling phase is to depolarize the cells in HEPES buffered physiological saline containing 50 mM KCl. This opens hERG channels and permits efflux of rubidium. Supernatants are collected after 5 minutes and rubidium content is measured using a flame atomic absorbance spectrometer with a robot for sampling from 96-well plates (ICR-8000, Aurora Biomed Inc., Vancouver, British Columbia). In cases where the channel is blocked the amount of rubidium efflux is reduced. Drug effects are calculated based on the difference between wells with no added compound and wells in which there is complete block of hERG channels with a well-known positive standard (10 μM dofetilide)."}}, "note": "Where two headings read alike, the source gives them in different places."}
{"smiles": "CNCc1ccc(C2=CCC(N(CCN3CCCC3)C(=O)Nc3ccc(F)c(Cl)c3)CC2)s1", "note": "(centres unmarked) [Example 6]", "values": [{"measurement": "Ki", "setting": "MCH receptor; read-out: Class (Ki)", "result": "< 0.03", "unit": "µM"}]}
{"smiles": "CN(C)Cc1ncc(C2=CCC(N(CCN3CCCC3)C(=O)Nc3ccc(F)c(C(F)(F)F)c3)CC2)s1", "note": "(centres unmarked) [Example 8]", "values": [{"measurement": "Ki", "setting": "MCH receptor; read-out: Class (Ki)", "result": "> 0.1", "unit": "µM"}]}
{"smiles": "NCc1ncc([C@]23CC[C@@H](N(CCCN4CC[C@@H](O)C4)C(=O)Nc4ccc(F)c(C(F)(F)F)c4)C2C3)s1", "note": "(some centres unmarked) [Example 18]", "values": [{"measurement": "herg-Rb 1.5 μg/mL (%)", "setting": "hERG channels", "result": "−5", "unit": "%"}, {"measurement": "herg-Rb 5 μg/mL (%)", "setting": "hERG channels", "result": "−4", "unit": "%"}, {"measurement": "Ki", "setting": "MCH receptor; read-out: Class (Ki)", "result": "< 0.03", "unit": "µM"}]}
{"smiles": "NCc1ncc([C@@]23C[C@H](N(CCCN4CC[C@H](O)C4)C(=O)Nc4ccc(F)c(C(F)(F)F)c4)C[C@@H]2C3)s1", "note": "[Example 14]", "values": [{"measurement": "Ki", "setting": "MCH receptor; read-out: Class (Ki)", "result": "> 0.1", "unit": "µM"}]}
{"smiles": "NCc1ncc(C2=CCC(N(CCN3CCCC3)C(=O)Nc3ccc(F)c(C(F)(F)F)c3)CC2)s1", "note": "(centres unmarked) [Example 10]", "values": [{"measurement": "herg-Rb 1.5 μg/mL (%)", "setting": "hERG channels", "result": 9, "unit": "%"}, {"measurement": "herg-Rb 5 μg/mL (%)", "setting": "hERG channels", "result": 26, "unit": "%"}, {"measurement": "Ki", "setting": "MCH receptor; read-out: Class (Ki)", "result": "< 0.03", "unit": "µM"}]}
{"smiles": "NCc1ncc([C@]23CC[C@@H](N(CCN4CC[C@H](O)C4)C(=O)Nc4ccc(F)c(C(F)(F)F)c4)[C@H]2C3)s1", "note": "[Example 13]", "values": [{"measurement": "herg-Rb 1.5 μg/mL (%)", "setting": "hERG channels", "result": 13, "unit": "%"}, {"measurement": "herg-Rb 5 μg/mL (%)", "setting": "hERG channels", "result": 8, "unit": "%"}, {"measurement": "Ki", "setting": "MCH receptor; read-out: Class (Ki)", "result": "0.03 to 0.1", "unit": "µM"}]}
{"smiles": "NCc1ncc([C@]23CC[C@@H](N(CCCN4CC5CC4CN5)C(=O)Nc4ccc(F)c(C(F)(F)F)c4)C2C3)s1", "note": "(some centres unmarked) [Example 17]", "values": [{"measurement": "herg-Rb 1.5 μg/mL (%)", "setting": "hERG channels", "result": 0, "unit": "%"}, {"measurement": "herg-Rb 5 μg/mL (%)", "setting": "hERG channels", "result": 14, "unit": "%"}, {"measurement": "Ki", "setting": "MCH receptor; read-out: Class (Ki)", "result": "0.03 to 0.1", "unit": "µM"}]}
{"smiles": "NCc1ccc(C2=CCC(N(CCN3CCCC3)C(=O)Nc3ccc(F)c(Cl)c3)CC2)s1", "note": "(centres unmarked) [Example 1]", "values": [{"measurement": "herg-Rb 1.5 μg/mL (%)", "setting": "hERG channels", "result": 22, "unit": "%"}, {"measurement": "herg-Rb 5 μg/mL (%)", "setting": "hERG channels", "result": 26, "unit": "%"}, {"measurement": "Ki", "setting": "MCH receptor; read-out: Class (Ki)", "result": "< 0.03", "unit": "µM"}, {"measurement": "Ki", "setting": "MCH receptor; read-out: Ki", "result": 0.008, "unit": "µM"}]}
{"smiles": "C[C@@H]1CN(CCCN(C(=O)Nc2cc(Cl)nc(Cl)c2)[C@@H]2CC[C@]3(c4cnc(CN)s4)CC23)[C@@H](C)CN1", "note": "(some centres unmarked) [Example 19]", "values": [{"measurement": "herg-Rb 1.5 μg/mL (%)", "setting": "hERG channels", "result": "−10", "unit": "%"}, {"measurement": "herg-Rb 5 μg/mL (%)", "setting": "hERG channels", "result": 3, "unit": "%"}, {"measurement": "Ki", "setting": "MCH receptor; read-out: Class (Ki)", "result": "< 0.03", "unit": "µM"}]}
{"smiles": "CN(C)Cc1ccc(C2=CCC(N(CCN3CCCC3)C(=O)Nc3ccc(F)c(Cl)c3)CC2)s1", "note": "(centres unmarked) [Example 2]", "values": [{"measurement": "Ki", "setting": "MCH receptor; read-out: Class (Ki)", "result": "> 0.1", "unit": "µM"}]}
{"smiles": "CN(C)Cc1ncc(C2=CCC(N(CCN3CCCC3)C(=O)Nc3ccc(F)c(Cl)c3)CC2)s1", "note": "(centres unmarked) [Example 9]", "values": [{"measurement": "Ki", "setting": "MCH receptor; read-out: Class (Ki)", "result": "> 0.1", "unit": "µM"}]}
{"smiles": "NCc1cnc(C2=CCC(N(CCN3CCCC3)C(=O)Nc3ccc(F)c(Cl)c3)CC2)s1", "note": "(centres unmarked) [Example 11]", "values": [{"measurement": "herg-Rb 1.5 μg/mL (%)", "setting": "hERG channels", "result": 9, "unit": "%"}, {"measurement": "herg-Rb 5 μg/mL (%)", "setting": "hERG channels", "result": 14, "unit": "%"}, {"measurement": "Ki", "setting": "MCH receptor; read-out: Class (Ki)", "result": "< 0.03", "unit": "µM"}]}
{"smiles": "O=C(Nc1ccc(F)c(Cl)c1)N(CCN1CCCC1)C1CC=C(c2ccc(CN3CC[C@H](O)C3)s2)CC1", "note": "(some centres unmarked) [Example 5]", "values": [{"measurement": "herg-Rb 1.5 μg/mL (%)", "setting": "hERG channels", "result": 0, "unit": "%"}, {"measurement": "herg-Rb 5 μg/mL (%)", "setting": "hERG channels", "result": 6, "unit": "%"}, {"measurement": "Ki", "setting": "MCH receptor; read-out: Class (Ki)", "result": "0.03 to 0.1", "unit": "µM"}]}
{"smiles": "NCc1ncc([C@]23CC[C@@H](N(CCCN4CC[C@@H](O)C4)C(=O)Nc4ccc(F)c(C(F)(F)F)c4)[C@H]2C3)s1", "note": "[Example 21]", "values": [{"measurement": "Ki", "setting": "MCH receptor; read-out: Class (Ki)", "result": "< 0.03", "unit": "µM"}]}
{"smiles": "NCc1ncc([C@]23CC[C@@H](N(CCCN4CC[C@H](O)C4)C(=O)Nc4ccc(F)c(C(F)(F)F)c4)C2C3)s1", "note": "(some centres unmarked) [Example 15]", "values": [{"measurement": "herg-Rb 1.5 μg/mL (%)", "setting": "hERG channels", "result": "−4", "unit": "%"}, {"measurement": "herg-Rb 5 μg/mL (%)", "setting": "hERG channels", "result": "−4", "unit": "%"}, {"measurement": "Ki", "setting": "MCH receptor; read-out: Class (Ki)", "result": "0.03 to 0.1", "unit": "µM"}]}
{"smiles": "O=C(Nc1ccc(F)c(Cl)c1)N(CCN1CCCC1)C1CC=C(c2ccc(CN3CCC3)s2)CC1", "note": "(centres unmarked) [Example 3]", "values": [{"measurement": "herg-Rb 1.5 μg/mL (%)", "setting": "hERG channels", "result": "−1", "unit": "%"}, {"measurement": "herg-Rb 5 μg/mL (%)", "setting": "hERG channels", "result": 15, "unit": "%"}, {"measurement": "Ki", "setting": "MCH receptor; read-out: Class (Ki)", "result": "> 0.1", "unit": "µM"}]}
{"smiles": "NCc1ncc(C2=CCC(N(CCN3CCCC3)C(=O)Nc3ccc(F)c(Cl)c3)CC2)s1", "note": "(centres unmarked) [Example 7]", "values": [{"measurement": "herg-Rb 1.5 μg/mL (%)", "setting": "hERG channels", "result": "−1", "unit": "%"}, {"measurement": "herg-Rb 5 μg/mL (%)", "setting": "hERG channels", "result": 10, "unit": "%"}, {"measurement": "Ki", "setting": "MCH receptor; read-out: Class (Ki)", "result": "< 0.03", "unit": "µM"}]}
{"smiles": "NCc1ncc([C@@]23CC[C@H](N(CCCN4CC[C@@H](O)C4)C(=O)Nc4ccc(F)c(C(F)(F)F)c4)[C@@H]2C3)s1", "note": "[Example 20]", "values": [{"measurement": "Ki", "setting": "MCH receptor; read-out: Class (Ki)", "result": "> 0.1", "unit": "µM"}]}
{"smiles": "C[C@@H]1CN(CCCN(C(=O)Nc2ccc(F)c(C(F)(F)F)c2)[C@@H]2CC[C@]3(c4cnc(CN)s4)CC23)[C@@H](C)CN1", "note": "(some centres unmarked) [Example 16]", "values": [{"measurement": "herg-Rb 1.5 μg/mL (%)", "setting": "hERG channels", "result": "−11", "unit": "%"}, {"measurement": "herg-Rb 5 μg/mL (%)", "setting": "hERG channels", "result": "−8", "unit": "%"}, {"measurement": "Ki", "setting": "MCH receptor; read-out: Class (Ki)", "result": "< 0.03", "unit": "µM"}]}
{"smiles": "NCc1ncc([C@]23CC[C@@H](N(CCN4CCCC4)C(=O)Nc4ccc(F)c(C(F)(F)F)c4)[C@H]2C3)s1", "note": "[Example 12]", "values": [{"measurement": "herg-Rb 1.5 μg/mL (%)", "setting": "hERG channels", "result": 13, "unit": "%"}, {"measurement": "herg-Rb 5 μg/mL (%)", "setting": "hERG channels", "result": 16, "unit": "%"}, {"measurement": "Ki", "setting": "MCH receptor; read-out: Class (Ki)", "result": "> 0.1", "unit": "µM"}]}
{"smiles": "O=C(Nc1ccc(F)c(Cl)c1)N(CCN1CCCC1)C1CC=C(c2ccc(CN3CCCC3)s2)CC1", "note": "(centres unmarked) [Example 4]", "values": [{"measurement": "herg-Rb 1.5 μg/mL (%)", "setting": "hERG channels", "result": "−1", "unit": "%"}, {"measurement": "herg-Rb 5 μg/mL (%)", "setting": "hERG channels", "result": 20, "unit": "%"}, {"measurement": "Ki", "setting": "MCH receptor; read-out: Class (Ki)", "result": "> 0.1", "unit": "µM"}]}
